Values quoted from earlier work, collected in PMC4257705 (Organic letters, 2009).

Target: αVβ3
Settings: tripeptide sequence Arg-Gly-Asp (RGD)

Substance: Arg-Gly-Asp [RGD]
- Kd: ~1 nM
